In patent US20260062426A1, “CYCLIN DEPENDENT KINASE DEGRADERS AND METHODS OF USE THEREOF” (Differentiated Therapeutics Inc, priority 2023, published 2026):

How the values were obtained:
Type in all cases: cell-based
CDK2 = molecular target: T1, CDK2 (Homo sapiens, UniProt P24941); experiment: CDK2 HIBIT PQ (protein quantification), degradation; conditions: for CDK2 HIBIT PQ Max (%): Max = Maximum; for DC50: PQ = Protein Quantification
T1 construct: host or cells: HEK293
Summary of the method: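 HEK293 cells carrying HiBiT-tagged CDK2 were grown in DMEM with 10% FBS and seeded in 384-well plates at 1.6×10^5 cells/well in 50 uL, then incubated overnight at 37° C and 5% CO2. After 6 hours of compound treatment, 20 μL of HiBiT reagent (Nano-Glo HiBiT lytic buffer, lytic substrate, LgBiT protein) was added and plates were shaken for 20 minutes at room temperature before an EnVision reading. High control was 0.1% DMSO and low control was medium only. Maximal degradation and DC50 were derived from these readings.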

CCNE1 = molecular target: T2, CCNE1 (Homo sapiens, UniProt P24864+P24941); experiment: CCNE1 HIBIT PQ (protein quantification), degradation; conditions: for CCNE1 HIBIT PQ Max (%): Max = Maximum; for DC50: PQ = Protein Quantification
T2 construct: host or cells: HEK293
Summary of the method: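 HEK293 cells with HiBiT-tagged CCNE1 were cultured in EMEM containing 10% FBS, plated at 1.6×10⁵ cells/well in 50 uL in 384-well plates and left overnight at 37° C with 5% CO₂. After 6 hours of compound exposure, a HiBiT assay measured CCNE1 protein, with 0.1% DMSO-treated cells as the high control and medium alone as the low control. DC50 and maximal degradation came from these readings.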

CDK9 = molecular target: T3, CDK9 (Homo sapiens, UniProt P50750); experiment: CDK9 HIBIT PQ (protein quantification), degradation; conditions: for DC50: PQ = Protein Quantification
T3 construct: host or cells: HEK293
Summary of the method: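 In 384-well plates, HEK293 cells with HiBiT-tagged CDK9, grown in DMEM with 10% FBS, were seeded at 1.6×10^5 cells/well in 50 uL and kept overnight at 37° C and 5% CO2. After compound treatment, a HiBiT assay quantified CDK9 protein against a high control of 0.1% DMSO-treated cells and a low control of culture medium only. Maximal degradation, Dmax and DC50 were derived from the resulting signal.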

T3 sequence (P50750 whole entry): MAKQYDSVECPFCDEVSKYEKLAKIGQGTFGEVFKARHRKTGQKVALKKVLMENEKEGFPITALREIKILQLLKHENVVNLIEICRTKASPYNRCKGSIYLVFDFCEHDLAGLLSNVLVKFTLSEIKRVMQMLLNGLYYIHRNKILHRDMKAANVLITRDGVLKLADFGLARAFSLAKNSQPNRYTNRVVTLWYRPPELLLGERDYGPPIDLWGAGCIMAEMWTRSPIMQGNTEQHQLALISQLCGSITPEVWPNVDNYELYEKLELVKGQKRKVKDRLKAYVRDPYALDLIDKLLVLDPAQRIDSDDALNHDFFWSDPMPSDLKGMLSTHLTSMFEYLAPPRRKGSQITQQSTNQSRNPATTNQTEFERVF

Row | SMILES | CDK2 HIBIT PQ Max (%) (CDK2) | DC50 (CDK2) | CCNE1 HIBIT PQ Max (%) (CCNE1) | Dmax (CDK9; Max = Maximum) | DC50 (CDK9) | DC50 (CCNE1) | CDK9 HIBIT PQ Max (%) (CDK9; Max = Maximum)
1 | CC(C)Oc1c(-c2cn[nH]c2)ncn2nc(Nc3ccc(S(=O)(=O)c4cccc(OC5CN(C6CCN(c7ccc8c(c7)CN(C7CCC(=O)NC7=O)C8=O)CC6)C5)c4)cc3F)nc12 (racemic) [Compound 23] | 87% | 1.1 nM | 42% | 61% | 10.6 nM | – | –
2 | CC(C)Oc1c(-c2cn[nH]c2)ncn2nc(Nc3ccc(S(=O)(=O)c4cccc(N5CCCC6C5CN6c5ccc6c(c5)CN(C5CCC(=O)NC5=O)C6=O)c4)cc3F)nc12 (stereo not drawn) [Compound 35] | 79% | 6.5 nM | 25% | 17% | – | – | –
3 | CC(C)Oc1c(-c2cn[nH]c2)ncn2nc(Nc3ccc(S(=O)(=O)c4cccc(C[C@H]5C[C@H](c6ccc7c(c6)CN(C6CCC(=O)NC6=O)C7=O)C5)c4)cc3F)nc12 (stereo partly drawn) [Compound 30] | 96% | 7.2 nM | 79% | 54% | 147 nM | 29.5 nM | –
4 | CC(C)Oc1c(-c2cn[nH]c2)ncn2nc(Nc3ccc(S(=O)(=O)c4cccc(CN5CCN(c6ccc7c(N8CCC(=O)NC8=O)nn(C)c7c6)C(C)C5)c4)cc3F)nc12 (racemic) [Compound 41] | 94% | 3.9 nM | 41% | 57% | 28 nM | – | –
5 | CC(C)Oc1c(-c2cn[nH]c2)ncn2nc(N[C@H]3CCN(S(=O)(=O)c4cccc(CN5CCN(c6ccc7c(N8CCC(=O)NC8=O)nn(C)c7c6)CC5)c4)C[C@H]3C)nc12 [Compound 40] | 96% | 3.6 nM | 89% | 103% | 16.7 nM | 8.91 nM | –
6 | CC(C)Oc1c(-c2cn[nH]c2)ncn2nc(Nc3ccc(S(=O)(=O)N(C)CCCN4CCC(c5ccc6c(c5)n(C)c(=O)n6C5CCC(=O)NC5=O)CC4)cc3)nc12 (racemic) [Compound 54] | 89% | 0.1 nM | 82% | 74% | 1.57 nM | 0.59 nM | –
7 | CC(C)Oc1c(-c2cn[nH]c2)ncn2nc(Nc3ccc(S(=O)(=O)c4cccc(CN5CCC(c6cccc7c(N8CCC(=O)NC8=O)nn(C)c67)CC5)c4)cc3F)nc12 [Compound 26] | 84% | 3.8 nM | 51% | 13% | – | 2.4 nM | –
8 | CC(C)Oc1c(-c2cn[nH]c2)ncn2nc(Nc3ccc(S(=O)(=O)N4CC5(CCCN(CCOc6cccc7c6n(C)c(=O)n7C6CCC(=O)NC6=O)C5)C4)cc3F)nc12 (stereo not drawn) [Compound 27] | 66% | 6.3 nM | 10% | 6% | – | – | –
9 | CC(C)Oc1c(-c2cn[nH]c2)ncn2nc(Nc3ccc(S(=O)(=O)c4cccc(CC5CC(c6ccc(C(=O)NC7CCC(=O)NC7=O)cc6)C5)c4)cc3F)nc12 (racemic) [Compound 32, rac-N-[(3R)-2,6-dioxopiperidin-3-yl]-4-(3-{[3-(3-fluoro-4-{[8-isopropoxy-7-(1H-pyrazol-4-yl)-[1,2,4]triazolo[1,5-c]pyrimidin-2-yl]amino}benzenesulfonyl)phenyl]methyl}cyclobutyl)benzamide] | 89% | 78.1 nM | 62% | 62% | 396 nM | > 3000 nM | –
10 | CC(C)Oc1c(-c2cn[nH]c2)ncn2nc(Nc3ccc(S(=O)(=O)N4CCC(CN5CCC(c6cccc7c6n(C)c(=O)n7C6CCC(=O)NC6=O)CC5)CC4)cc3F)nc12 (racemic) [Compound 14, rac-(R)-3-(4-(1-((1-((3-fluoro-4-((8-isopropoxy-7-(1H-pyrazol-4-yl)-[1,2,4]triazolo[1,5-c]pyrimidin-2-yl)amino)phenyl)sulfonyl)piperidin-4-yl)methyl)piperidin-4-yl)-3-methyl-2-oxo-2,3-dihydro-1H-benzo[d]imidazol-1-yl)piperidine-2,6-dione] | 70% | 0.24 nM | 33% | 74% | 1.12 nM | – | –
11 | CC(C)Oc1c(-c2cn[nH]c2)ncn2nc(NC3CCN(S(=O)(=O)c4cccc(CN5CCC(c6ccc7c(N8CCC(=O)NC8=O)nn(C)c7c6)CC5)c4)CC3)nc12 [Compound 1, 1-(6-(1-(3-((4-((8-isopropoxy-7-(1H-pyrazol-4-yl)-[1,2,4]triazolo[1,5-c]pyrimidin-2-yl)amino)piperidin-1-yl)sulfonyl)benzyl)piperidin-4-yl)-1-methyl-1H-indazol-3-yl)dihydropyrimidine-2,4(1H,3H)-dione] | 93% | 1.62 nM | 92% | 104% | 2.98 nM | 1.94 nM | –
12 | CC(C)Oc1c(-c2cn[nH]c2)ncn2nc(Nc3ccc(S(=O)(=O)c4cccc(CN5CCC(c6ccc7c(N8CCC(=O)NC8=O)nn(C)c7c6)CC5)c4)cc3F)nc12 [Compound 8, 1-(6-(1-(3-((3-fluoro-4-((8-isopropoxy-7-(1H-pyrazol-4-yl)-[1,2,4]triazolo[1,5-c]pyrimidin-2-yl)amino)phenyl)sulfonyl)benzyl)piperidin-4-yl)-1-methyl-1H-indazol-3-yl)dihydropyrimidine-2,4(1H,3H)-dione] | 92% | 1.58 nM | 81% | 91% | 10.2 nM | 7.36 nM | –

Now from value to molecule:

Row | CDK2 HIBIT PQ Max (%) (CDK2) | DC50 (CDK2) | CCNE1 HIBIT PQ Max (%) (CCNE1) | Dmax (CDK9; Max = Maximum) | DC50 (CDK9) | DC50 (CCNE1) | CDK9 HIBIT PQ Max (%) (CDK9; Max = Maximum) | SMILES
13 | 86% | 0.3 nM | 72% | 78% | 3.2 nM | 1.55 nM | – | CC(C)Oc1c(-c2cn[nH]c2)ncn2nc(Nc3ccc(S(=O)(=O)N(C)CCCN4CCC(c5ccc6c(c5)n(C)c(=O)n6C5CCC(=O)NC5=O)CC4)c4cnccc34)nc12 (racemic) [Compound 61]
14 | 88% | 1.7 nM | 82% | 77% | 21.7 nM | 4.11 nM | – | CC(C)Oc1c(-c2cn[nH]c2)ncn2nc(Nc3ccc(S(=O)(=O)N4CCCC(CN5CCC(c6ccc7c(N8CCC(=O)NC8=O)nn(C)c7c6)C(C)C5)C4)cc3F)nc12 (stereo not drawn) [Compound 92]
15 | 90% | 2.6 nM | 77% | – | 10.6 nM | 13.9 nM | 82% | CC(C)Oc1c(-c2cn[nH]c2)ncn2nc(Nc3ccc(S(=O)(=O)c4cccc(C(C)N5CCC(c6ccc7c(N8CCC(=O)NC8=O)nn(C)c7c6)CC5)c4)cc3F)nc12 (single isomer, unassigned) [Compound 101]
16 | 90% | 1 nM | 83% | 92% | 4.01 nM | 1.96 nM | – | CC(C)Oc1c(-c2cn[nH]c2)ncn2nc(Nc3ccc(S(=O)(=O)N4CCC[C@@H](CN5CC[C@H](c6ccc7c(N8CCC(=O)NC8=O)nn(C)c7c6)CC5(C)C)C4)cc3F)nc12 (single isomer, unassigned) [Compound 103]
17 | 88% | 23.4 nM | 52% | 27% | – | 100 nM | – | CC(C)Oc1c(-c2cn[nH]c2)ncn2nc(Nc3ccc(S(=O)(=O)c4cccc(C[C@H]5C[C@H](c6ccc7c(c6)CN([C@H]6CCC(=O)NC6=O)C7=O)C5)c4)cc3F)nc12 (stereo in doubt) [Compound 82, (S)-3-(5-((1s,3S)-3-(3-((3-fluoro-4-((8-isopropoxy-7-(1H-pyrazol-4-yl)-[1,2,4]triazolo[1,5-c]pyrimidin-2-yl)amino)phenyl)sulfonyl)benzyl)cyclobutyl)-1-oxoisoindolin-2-yl)piperidine-2,6-dione]
18 | 84% | 3.2 nM | 71% | 67% | 61.5 nM | 12.5 nM | – | CC(C)Oc1c(-c2cn[nH]c2)ncn2nc(Nc3ccc(S(=O)(=O)N4CCCC(CN5CCN(c6ccc7c(N8CCC(=O)NC8=O)nn(C)c7c6)C(C)C5)C4)cc3F)nc12 (stereo not drawn) [Compound 91]
